# Assay results taken from patent US12415819B2, “Cu- and Ni-catalyzed decarboxylative borylation reactions” (The Scripps Research Institute, priority 2017, dated 2025).
# Where two headings read alike, the source gives them in different places.
# Experiments:
# [1] = molecular target: T1, human neutrophil elastase (Homo sapiens (Human), UniProt P08246); assay: Elastase inhibition assay, purified human neutrophil elastase; assay type: biochemical; conditions: for LipE: Purified NHE; for IC50: purified HNE, read-out: IC50
# Description: Serially diluted compounds in DMSO were dispensed into a 384-well black opaque plate by Echo dispenser. 0.1 μg/mL human neutrophil elastase (EPC, Catalog# SE563, Owensville, Ms.) or human sputum diluted with assay buffer (100 mM HEPES, 500 mM NaCl, 0.02% Tween 20) was added into the 384-well plate, and was incubated with different compounds at different concentrations for 30 minutes at room temperature. The final concentration of DMSO in the reaction was 0.1%. […] Slope of fluorescence intensity vs. time representing the Vmax of enzyme activity was calculated with MARS software. % relative inhibition was calculated as: […]
# (§1) IC50 was calculated based on the % relative inhibition curve using log(agonist) vs. response (three parameters) method with Prism software. All experiments were performed in triplicate for at least three independent times.
# Plasma Stability Assay = assay type: in vitro ADME, mouse; conditions: for % Remaining (mean): CD-1 Mouse Plasma; for portion intact in CD-1 mouse plasma: over 2 hours; for CD-1 Mouse Plasma % Remaining @ 2 hr: summary table
# Description: Propantheline was used as the reference compound in this assay; all stock solutions were stored at −40° C. before use. • 2) Test system: CD-1 Mouse Plasma from a minimum of 20 male individuals were obtained from BioreclamationlVT (Catalog #: […]2-M; Batch #: MSE244515). EDTA-K2 was used as the anticoagulant. Procedure:
# The frozen plasma was thawed in a water bath at 37° C. prior to the experiments. The plasma was centrifuged at 4000 rpm for 5 min and the clots were removed if necessary.
# The pH was adjusted to 7.4±0.1 as necessary. An intermediate solution (1 mM) was prepared and a 100 μM dosing solution was prepared by diluting 10 μL of the intermediate solution with 90 μL 45% MeOH/H2O. Duplicate of test samples were made by mixing 98 μL of blank plasma with 2 μL of dosing solution (100 μM) to achieve the final concentration of 2 μM. Samples were incubated at 37° C. At each time point (0, 10, 30, 60, and 120 min), 400 μL of stop solution (consisting of 200 ng/mL tolbutamide and 20 ng/mL buspirone in 50% MeOH/CH3CN) was added to precipitate protein under thorough mixing. The sample plates were then centrifuged at 4,000 rpm for 10 min. An aliquot of supernatant (100 μL) was transferred from each well and mixed with 200 of μL ultrapure water. The samples were shaken at 800 rpm for about 10 min before LC-MS/MS analysis.
# Data analysis: The % remaining of test compound after incubation in plasma was calculated using following equation: Remaining=100×(PAR at Tn/PAR at T0) where PAR is the peak area ratio of analyte versus internal standard (IS) and The appointed incubation time points are T0 (0 min), Tn (n=0, 10, 30, 60, 120 min).
# LC-MS/MS condition: Each compound was analyzed by LC/MS using an ACE 5-phenyl 50×2.1 mm column (Part No. ACE-125-0502) with 0.1% formic acid in water and 0.1% formic acid in acetonitrile as the mobile phases. Tobultamide was used as the internal standard. Data collected were processed by Analyst 1.6.2 software and MultiQuant 3.0.2 software.
# [2] = molecular target: T1, human neutrophil elastase; assay: Time dependence of elastase inhibition; assay type: biochemical
# Description: The procedure for the elastase inhibition assay was followed with slight modifications. 0.1 μg/mL human neutrophil elastase was incubated with a range of concentrations of inhibitors for 5, 15, 30 and 60 minutes before substrate MeOSuc-AAPV-AMC of 100 μM final concentration was added. Enzyme kinetics were read on PheraSTAR plate reader and IC50 was calculated with the method described above.
# [3] = molecular target: T1, human neutrophil elastase; assay: Elastase inhibition assay, purified human neutrophil elastase; assay type: biochemical; conditions: purified HNE
# [4] = molecular target: elastase in COPD patient sputum (Homo sapiens (Human), UniProt P08246); assay: Elastase inhibition assay in COPD patient sputum; assay type: biochemical
# Description: Serially diluted compounds in DMSO were dispensed into a 384-well black opaque plate by Echo dispenser. 0.1 μg/mL human neutrophil elastase (EPC, Catalog# SE563, Owensville, Ms.) or human sputum diluted with assay buffer (100 mM HEPES, 500 mM NaCl, 0.02% Tween 20) was added into the 384-well plate, and was incubated with different compounds at different concentrations for 30 minutes at room temperature. The final concentration of DMSO in the reaction was 0.1%. Elastase substrate MeOSuc-AAPV-AMC (Bachem, Catalog #I-1270, Torrance, CA) of 100 μM final concentration was then added into the reaction system just before enzyme kinetics were read on PheraSTAR plate reader at excitation of 380 nm and emission of 460 nm with a 3-minutes interval for 30 minutes in total. Slope of fluorescence intensity vs. time representing the Vmax of enzyme activity was calculated with MARS software. % relative inhibition was calculated as: […]
# as §1
# Human sputum was purchased from Discovery Life Sciences (Los Osos, CA). Human sputum was diluted 1:10 in volume with assay buffer (100 mM HEPES, 500 mM NaCl, 0.02% Tween 20) followed by vigorous vortexing. The 1:10 diluted human sputum was further diluted into 1:30, 1:90, 1:270, 1:810, and 1:2430. The elastase concentration was determined by elastase inhibition assay as described above. Specifically, a series of standards of human neutrophil elastase (starting at 2 μg/mL and further diluted 1:2 in volume) were prepared in the assay buffer. The samples and standards were plated in a 384-well black solid bottom plate; the substrate MeOSuc-AAPV-AMC of 100 μM final concentration was then added into the reaction system just before enzyme kinetics were read on PheraSTAR plate reader as mentioned above. The slope of enzymatic kinetic reading was calculated by MARS software. The elastase levels of the human sputum were calculated based on the standard curve.
# [5] = 5 min incubation with inhibitor
# [6] = 15 min incubation with inhibitor
# [7] = 30 min incubation with inhibitor
# [8] = 60 min incubation with inhibitor
# T1 sequence (P08246 30-247): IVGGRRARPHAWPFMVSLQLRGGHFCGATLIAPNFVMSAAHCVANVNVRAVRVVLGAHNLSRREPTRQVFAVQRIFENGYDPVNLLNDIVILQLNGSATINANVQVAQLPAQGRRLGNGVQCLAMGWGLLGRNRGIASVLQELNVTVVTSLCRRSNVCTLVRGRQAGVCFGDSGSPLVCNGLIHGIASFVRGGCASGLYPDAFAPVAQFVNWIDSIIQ
# elastase in COPD patient sputum, sequence (P08246 30-267): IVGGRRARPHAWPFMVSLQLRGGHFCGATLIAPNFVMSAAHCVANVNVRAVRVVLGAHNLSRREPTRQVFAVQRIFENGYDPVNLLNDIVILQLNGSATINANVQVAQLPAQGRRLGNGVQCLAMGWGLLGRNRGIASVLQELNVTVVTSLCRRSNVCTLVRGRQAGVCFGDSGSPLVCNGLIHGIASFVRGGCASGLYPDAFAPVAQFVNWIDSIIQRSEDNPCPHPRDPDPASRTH
SMILES,inhibitory activity against HNE (in words) [1],LipE [1],inhibitory activity against HNE (in words) ([1]; listed as mCBK 320),IC50 [1] [nM],"% Remaining (mean) (Plasma Stability Assay; 0 min, 2 μM, 37° C.) [%]",% Remaining (mean) (Plasma Stability Assay; 10 min) [%],% Remaining (mean) (Plasma Stability Assay; 30 min) [%],% Remaining (mean) (Plasma Stability Assay; 60 min) [%],% Remaining (mean) (Plasma Stability Assay; 120 min) [%],portion intact in CD-1 mouse plasma (Plasma Stability Assay) [%],CD-1 Mouse Plasma % Remaining @ 2 hr (Plasma Stability Assay) [%],"IC50 [2, 5] [nM]","IC50 [2, 6] [nM]","IC50 [2, 7] [nM]","IC50 [2, 8] [nM]",Ki [3] [nM],IC50 [4] [nM],LipE [4],change of IC50 with increasing incubation times (in words) ([2]; between 5-60 minutes)
"CC(C)[C@H](NC(=O)[C@@H]1CCCN1C(=O)[C@@H](NC(=O)c1ccc(C(=O)NS(=O)(=O)c2ccc(Cl)cc2)cc1)C(C)C)B(O)O [Compound 51, (1-((S)-1-((4-(((4-chlorophenyl)sulfonyl)carbamoyl)benzoyl)-L-valyl)pyrrolidine-2-carboxamido)-2-methylpropyl)boronic acid]",substantially enhanced potency,7.33,highly potent,0.03,100.0,90.0,79.4,84.1,90.3,90,90.3,0.027,0.03,0.037,0.026,0.034,0.0223 ± 0.0006,7.46,
"CC(C)[C@H](NC(=O)[C@@H]1CCCN1C(=O)[C@@H](NC(=O)c1ccc(C(=O)NCC(=O)O)cc1)C(C)C)B(O)O [Compound 52, (4-(((2S)-1-((2S)-2-((1-borono-2-methylpropyl)carbamoyl)pyrrolidin-1-yl)-3-methyl-1-oxobutan-2-yl)carbamoyl)benzoyl)glycine]",,10.1,,0.015,100.0,116.1,104.8,96.4,79.2,79,79.2,0.004,0.0047,0.0042,0.0042,0.0037,0.0127 ± 0.0008,10.2,remain unchanged
